Data on 28 compounds can be found in PubChem BioAssay (NCI).

Assay in all cases: DTP human tumour cell line panel, 48 h
In test [1] the test system is A549 NSCLC.
Test [2] relates to SNB-19 CNS.
Test [3] deals with SW-620 colon.
Test [4] deals with SK-MEL-28 melanoma.
Test [5] relates to SK-MEL-2 melanoma.
The subject of test [6] is UACC-62 melanoma.
Test [7] has as its system SF-539 CNS.
Test [8] concerns U251 CNS.
In test [9] the test system is OVCAR-4 ovarian.

Where “and” joins values, the source holds several entries; their conditions need not be identical. Equal values may be shown once.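 Test compounds were applied to cells in 96-well plates for 48 hours at 5 doses. GI50: concentration for 50% inhibition of growth. TGI: total growth inhibition.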

For `CC(C)(C)C1CCC(O)(c2ccccc2)CC1` (stereo not given), the TGI is > 100 µM and 89.2 µM in [1]; over 100 µM in [2]; > 100 µM and 40.1 µM in [3]; > 100 µM and 64.5 µM in test [4]; > 100 µM and 28.4 µM in [5]; > 100 µM and 45.1 µM in test [6]. The TGI is > 100 µM and 45.4 µM in test [7]; > 100 µM and 32.3 µM in test [8].

`COc1ccc2cc3n(c(=O)c2c1)CCc1c-3cc(OC)c(OC)c1OC`: the TGI in test [1], in test [2], in test [3], in [4], in test [5] and in test [6] was over 100 µM in each case. The total growth inhibition concentration (TGI) in test [7], in test [9] and in test [8] was over 100 µM each time.

In the case of `CN(C)c1ccc(/C=c2/sc3nc(=O)c(-c4ccccc4NC(=O)C(F)(F)F)nn3c2=O)cc1`, the TGI in test [1], in test [2], in test [3], in test [4], in test [5] and in test [6] was over 100 µM in each case. The TGI in test [7], in test [9] and in test [8] was over 100 µM in each case.

Take `CC(C)(C)c1ccc(OCCOCCOc2ccc(C(C)(C)C)cc2S(N)(=O)=O)c(S(N)(=O)=O)c1`: the TGI in test [1], in test [2], in test [3], in test [4], in test [5] and in test [6] was over 100 µM throughout. Further, the TGI in test [7], in test [9] and in test [8] was over 100 µM each time.

Consider `ON1CCc2c([nH]c3ccccc23)C1c1ccc(Cl)cc1` (stereo not given), for which the TGI is over 100 µM in [1]; over 100 µM in test [2]; over 100 µM in [3]; over 100 µM in test [4]; 64.5 µM in [5]; over 100 µM in [6]. In addition, the TGI was over 100 µM in test [7] and 29.8 µM in test [8].

In the case of `CNS(=O)(=O)NNS(=O)(=O)c1ccc(C)cc1`, the TGI in test [1], in [2], in [3], in [4], in test [5] and in test [6] was over 100 µM in each case. For the same compound, the TGI in test [7] and in test [9] was over 100 µM throughout.

Take `CN(C)c1ccc(/C=C2\CCc3ccccc3C2=O)cc1Br`: the TGI in [1], in test [2], in test [3], in test [4], in test [5] and in [6] was over 100 µM throughout. Further, the TGI in test [7], in [9] and in test [8] was over 100 µM each time.

Turning to `c1cc(OCCCCCOc2cccc(-c3nc4ccccc4[nH]3)c2)cc(-c2nc3ccccc3[nH]2)c1`, the GI50 in test [2] is 2.85 µM; in test [3], 2.87 µM; in [4], 2.82 µM; in test [5], 2.05 µM; in test [6], 2.83 µM; in test [7], 5.08 µM. Also, the GI50 was 2.03 µM in test [9] and 3.07 µM in [8]. Moreover, the TGI was over 100 µM in [2]; over 100 µM in test [3]; over 100 µM in test [4]; 5.67 µM in test [5]; over 100 µM in test [6]; over 100 µM in test [7]. Also, the TGI in test [9] and in test [8] was over 100 µM in each case.

As to `O=c1c2cc(Br)ccc2nc(CNc2ccccc2)n1-c1ccccc1`, the TGI is over 62.7 µM in test [1]; over 72.1 µM in test [2]; 27.5 µM in [3]; over 65.6 µM in test [4]; 62.3 µM in test [5]; 23.5 µM in [6]. The TGI in test [7] worked out at 32.7 µM; in [9] it was 23 µM; in [8] it was 31.8 µM.

In the case of `CCC12C=C(C(=O)OC)N3c4ccccc4C4CCN(CCC1)C2C43` (stereo not given), the TGI in test [1], in test [2], in [3], in test [4], in [5] and in [6] was over 100 µM throughout. Also, the TGI in [7], in [9] and in test [8] was over 100 µM in each case.

`N#CC1(CCCCl)CCCCC1`: the TGI in test [1], in test [2], in test [3], in [4], in [5] and in test [6] was over 100 µM each time. Also, the TGI in test [7] and in test [8] was over 100 µM each time.

For `CCCCC(C(=O)C(=O)Nc1ccccc1CC)C(=O)C(C)C` (stereo not given), the TGI in test [1], in test [2], in test [3], in [5], in test [6] and in [7] was over 100 µM in each case. Further, the TGI in [9] and in [8] was over 100 µM throughout.

Turning to `Nc1ccccc1C(=O)/C=C/c1ccccc1O`, the TGI in test [1], in test [2], in test [3], in test [4], in test [5] and in [6] was over 100 µM each time. In addition, the TGI in test [7], in [9] and in test [8] was over 100 µM in each case.

Consider `O=C1c2ccccc2C2(O)N(c3ccccc3)C(=S)N(c3ccccc3)C12O` (stereo not given), for which the TGI in test [1], in test [2], in test [3], in test [4], in [5] and in test [6] was over 100 µM in each case. For the same compound, the TGI in test [7], in test [9] and in [8] was over 100 µM each time.

Consider `CC(C)CCCC(C)C1CCC2C3CC([N+](=O)[O-])=C4CC(O)CCC4(C)C3CCC12C` (stereo not given), for which the concentration for total growth inhibition (TGI) in test [1] was determined as 47.1 µM; in test [3], 59.1 µM; in [4], 35.2 µM; in test [5], 29 µM; in [6], 40.3 µM; in test [7], 28.9 µM. Moreover, the TGI is 43 µM in test [9] and 30.4 µM in test [8].

As to `N#Cc1c(CC(=O)O)cc(=O)n2c1[nH]c1ccccc12`, the TGI in [1], in [2], in test [3], in test [4], in [5] and in test [7] was over 100 µM throughout. In addition, the TGI in [9] and in test [8] was over 100 µM in each case.

For `Cc1ccccc1NC(=O)CC(=O)NNCC(=O)Nc1nnc(-c2ccccc2)s1`, the TGI in test [1], in test [2], in test [3], in [4], in [5] and in [6] was over 100 µM in each case. The TGI in test [7] is over 100 µM; in [9] it was 33.5 µM; in test [8] it was over 100 µM.

As to `O=C1Nc2ccc(Cl)cc2/C1=N/c1nc(-c2ccc(Cl)cc2)cs1`, the GI50 in test [3] was 1.67 µM; in test [5] it was 1.93 µM; in test [6], 1.54 µM; in [9] it was 1.39 µM; in [8], 1.7 µM. Further, the TGI is 4.29 µM in [3]; 4.85 µM in test [5]; 4.1 µM in [6]; over 100 µM in [9]; 4.65 µM in test [8].

For the compound `O=C(CC1(O)C(=O)Nc2c(Cl)ccc(Cl)c21)c1ccc(Cl)cc1` (stereo not given), the TGI in test [1] is over 100 µM; in test [2], over 100 µM; in [3], over 100 µM; in test [4], over 100 µM; in test [5] it was 86.4 µM; in [6] it was 48.9 µM. Besides, the TGI came out at 50.6 µM in [7], 41.4 µM in test [9] and 84.5 µM in test [8].

With `CN(C)CCNC(=O)c1cccc2c1nc(-c1cccnc1)c1ccccc12`, the TGI in test [1] amounted to 18.3 µM; in test [2], 36.8 µM; in test [3] it was 25.3 µM; in test [4], 23.6 µM; in [5] it was 22.8 µM; in [6], 15.2 µM. In addition, the TGI worked out at 10.7 µM in test [7], 18.4 µM in test [9] and 24 µM in test [8].

On to `O/N=C1/C(=C/c2ccc(OCc3ccccc3)cc2)CCCC1C(NO)c1ccc(OCc2ccccc2)cc1` (stereo not given), for which the TGI in test [1], in test [2], in test [3], in [4], in [5] and in test [7] was over 100 µM throughout. Further, the TGI was determined as 57.5 µM in test [9] and 33.4 µM in [8].

In the case of `CC1(C)CC(=O)C(C(=O)Nc2cccs2)=C(O)C1`, the TGI in test [1], in test [2], in [3], in [4], in [5] and in test [6] was over 100 µM throughout. Besides, the TGI in test [7], in test [9] and in test [8] was over 100 µM in each case.

Take `COc1cc2c(cc1C)NC(=O)/C2=C\c1ccc(Oc2ccccc2)cc1`: the GI50 in [1] is 14.7 µM; in [2], 17.8 µM; in test [3], 16.1 µM; in test [4] it was 15.7 µM; in test [5], 17 µM; in [6] it was 11.9 µM. For the same compound, the GI50 was 17.9 µM in test [7], 16.4 µM in test [9] and 12.8 µM in [8]. Further, the TGI in test [1] turned out to be 33.4 µM; in test [2], 32.9 µM; in test [3] it was 32.5 µM; in test [4], 29.5 µM; in test [5] it was 40.9 µM; in [6], 26 µM. The TGI in test [7] was found to be 32.7 µM; in [9] it was 29.9 µM; in test [8] it was 25.4 µM.

On to `CCOC(=O)C1C(NC(N)=O)N(Cc2ccccc2)C(=O)N1Cc1ccccc1` (stereo not given), for which the TGI in test [1], in test [2], in test [3], in [4], in [5] and in test [6] was over 100 µM each time. Moreover, the TGI in test [7] is over 100 µM; in [9], over 100 µM; in [8], 32 µM.

Take `CC(C)(C)C1CC[C@H]2c3c([nH]c4ccccc34)[C@H]3C(=O)N(c4ccc(F)cc4)C(=O)[C@H]3[C@H]2C1` (stereo not given in full): the TGI in test [1] was 26.1 µM; in [2] it was 29.8 µM; in [3], 35.8 µM; in test [4], 46.5 µM; in test [5] it was 33.2 µM; in test [6], 29.6 µM. Also, the concentration for total growth inhibition (TGI) in test [7] came out at 35.9 µM; in [9], 23.7 µM; in test [8] it was 20.8 µM.

For `CC(=O)NC(CCCNC(=O)OCc1ccccc1)C(=O)NCc1ccccc1` (stereo not given), the TGI in test [1], in test [2], in test [3], in test [4], in [5] and in [6] was over 100 µM each time. Also, the TGI in test [7], in test [9] and in test [8] was over 100 µM each time.

For `CN1S(=O)(=O)N(C)P12(N=P(CP(=NP13(N(C)S(=O)(=O)N1C)N(C)S(=O)(=O)N3C)(c1ccccc1)c1ccccc1)(c1ccccc1)c1ccccc1)N(C)S(=O)(=O)N2C`, the TGI in test [1], in test [2], in [3], in [4], in test [5] and in test [6] was over 100 µM throughout. In addition, the TGI in test [7] and in test [8] was over 100 µM each time.

As to `COc1ccc(C(C)Nc2cc(OC)c(OC)c(OC)c2)cc1` (stereo not given), the TGI in test [1] was over 100 µM; in test [2], over 100 µM; in test [3], over 100 µM; in test [4], over 100 µM; in [5], 81.1 µM; in test [6], over 100 µM. The figures for the TGI in [7], in test [9] and in test [8] were 12.8 µM, 63.8 µM and 10 µM, respectively.

A word on the TGI: it is the concentration at which net growth stops. Usually GI50 stands for the concentration that inhibits growth by half.
